# From PubChem BioAssay (NCI)
# Several values for one entry are separate records, joined by “and”; a condition that tells them apart may be missing. Equal values may be shown once.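 Values below derive from 48-hour exposures of cells grown in 96-well plates, with endpoints linearly interpolated between the two concentrations bracketing the appropriate inhibition level. GI50 marks 50% less growth. TGI marks complete inhibition of growth.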
# Key:
# Test in all cases: NCI anticancer screen, dose series, 48 h
# [1] = tested on: BT-549 breast
# [2] = tested on: CAKI-1 renal
# [3] = tested on: EKVX NSCLC
# [4] = tested on: HCC-2998 colon
# [5] = tested on: HL-60(TB) leukemia
# [6] = tested on: K-562 leukemia
# [7] = tested on: M14 melanoma
# [8] = tested on: MALME-3M melanoma
# [9] = tested on: MDA-MB-435
# [10] = tested on: SK-MEL-28 melanoma
SMILES,GI50 [1],TGI [1],GI50 [2],TGI [2],GI50 [3],TGI [3],GI50 [4],TGI [4],GI50 [5],TGI [5],GI50 [6],TGI [6],GI50 [7],TGI [7],GI50 [8],TGI [8],GI50 [9],TGI [9],GI50 [10],TGI [10]
C[n+]1cccc(NC(=O)c2ccc3ccc4ccc(C(=O)Nc5ccc[n+](C)c5)nc4c3n2)c1,24 µM,> 100 µM,4930 nM,> 100 µM,5.08 µM,> 100 µM,3.04 µM,> 100 µM,3540 nM,> 100 µM,2400 nM,> 100 µM,3.67 µM,> 100 µM,> 89.1 µM,> 100 µM,6.2 µM,> 100 µM,2.13 µM,> 100 µM
CC(C)c1cnc(-c2cc(Cl)ccc2F)cc1Nc1ccncc1C(=O)NC(CO)CO,14.8 µM,31.9 µM,6280 nM,68.7 µM,11.2 µM,24.6 µM,17.6 µM,33.2 µM,20100 nM,60.7 µM,12300 nM,46.5 µM,17.8 µM,39 µM,17.2 µM,34.4 µM,16.1 µM,30.4 µM,16.9 µM,32.8 µM
COc1ccc(N=Nc2ccc(O)c(=O)cc2)cc1,2.03 µM,11.6 µM,3770 nM,> 100 µM,4.3 µM,> 100 µM,4.04 µM,> 100 µM,3550 nM,> 100 µM,3690 nM,> 100 µM,2.22 µM,7.42 µM,2.86 µM,14.2 µM,4.02 µM,> 100 µM,3.06 µM,31.6 µM
Cc1[nH]c(C(=O)Nc2cccc(OC3CCNCC3)c2)c(Cl)c1Cl,4.65 µM,18.1 µM,1820 nM,3.39 µM,1.57 µM,3.39 µM,1.76 µM,3.31 µM,1910 nM,4.08 µM,1760 nM,4.53 µM,1.8 µM,3.52 µM,1.6 µM,3.22 µM,1.81 µM,3.3 µM,1.64 µM,3.07 µM
COc1ccc2[nH]c(C(=O)OCc3ccc4c(Br)cc(Br)c(O)c4n3)cc2c1,0.881 µM,2.16 µM,482 nM,1.83 µM,1.41 µM,2.82 µM,1.57 µM,3.06 µM,700 nM,3.41 µM,495 nM,4.94 µM,0.83 µM,2.29 µM,1.45 µM,2.85 µM,0.836 µM,2.2 µM,1.26 µM,2.53 µM
Nc1nc2ccc(CNc3ccc(C(=O)NC(CC(=O)O)C(=O)O)cc3)cc2c(=O)[nH]1 (configuration not stated),4.02 µM,> 31 µM,1370 nM,> 100 µM,–,> 100 µM,7.39 µM,> 100 µM,1130 nM,> 100 µM,437 nM,> 100 µM,–,> 100 µM,> 33.3 µM,> 100 µM,0.514 µM,> 100 µM,> 96 µM,> 100 µM
CCOC(=O)C1=C(C)NC2SC(=O)/C(=C\c3cccc(Cl)c3)N2C1c1ccccc1 (configuration not stated),> 100 µM,> 100 µM,> 100000 nM,> 100 µM,> 100 µM,> 100 µM,> 100 µM,> 100 µM,> 100000 nM,> 100 µM,> 100000 nM,> 100 µM,> 100 µM,> 100 µM,28.3 µM,> 100 µM,> 100 µM,> 100 µM,> 100 µM,> 100 µM
CC[C@]12C=CCN3CC[C@]4(C(=C(C(=O)OC)C1)Nc1cc5c(cc14)[C@@H]1[C@H](O5)[C@@H](O)[C@@]4(CC)CC(C(=O)OC)=C5Nc6ccccc6[C@@]56CCN1[C@@H]46)[C@@H]32,0.913 µM and 2.49 µM,25 µM and > 100 µM,81.9 nM and 268 nM,8.09 µM and 37.7 µM,0.927 µM and 0.748 µM,25 µM and 33.8 µM,0.0292 µM and 0.0366 µM,2.63 µM and 1.26 µM,134 nM and 269 nM,9.05 µM and 1.91 µM,129 nM and 276 nM,–,0.517 µM and 0.385 µM,25 µM and > 100 µM,0.412 µM and 0.431 µM,3.45 µM and 15.2 µM,0.395 µM and 0.309 µM,25 µM and 10.8 µM,1.07 µM and 1.32 µM,9.29 µM and 24.2 µM
COc1ccccc1CNCCCN1C(=O)c2ccc3c4c(ccc(c24)C1=O)C(=O)N(CCCNCCCCNCCCN)C3=O,1.7 µM,3.57 µM,2600 nM,10.4 µM,1.39 µM,3.22 µM,0.295 µM,1.06 µM,409 nM,1.69 µM,302 nM,7.05 µM,0.645 µM,2.08 µM,0.241 µM,0.546 µM,0.213 µM,0.494 µM,0.388 µM,1.44 µM
CCc1ccc(Oc2c(-c3ccc(OCCc4cccc(C(F)(F)F)c4)cc3O)n[nH]c2C(F)(F)F)cc1,6.17 µM,12.5 µM,6790 nM,13.3 µM,5.11 µM,11.2 µM,8.54 µM,16 µM,5200 nM,12.9 µM,1800 nM,6.1 µM,5.23 µM,11.9 µM,5.42 µM,11.8 µM,3.71 µM,10.3 µM,5.39 µM,11.4 µM
CC(C)(C)N1CC1CNC(=O)C(=O)NCC1CN1C(C)(C)C (configuration not stated),–,> 92.6 µM,–,> 96.1 µM,–,> 31.1 µM,–,14.8 µM,–,4.57 µM,–,15 µM,–,16.6 µM,–,8.68 µM,–,> 100 µM,–,11.1 µM
Cn1c2c(c3ccccc31)CCN1C[C@@H]3CCCC[C@H]3C[C@@H]21,3.04 µM,9.19 µM,2920 nM,> 29.5 µM,5.57 µM,> 100 µM,2.1 µM,5.48 µM,2270 nM,> 28.4 µM,2070 nM,> 36 µM,2.95 µM,18.4 µM,4.22 µM,> 55.8 µM,1.56 µM,> 20.6 µM,6.03 µM,> 100 µM
CN1C(=O)C(N=Nc2ccc([N+](=O)[O-])cc2)SC1=S (configuration not stated),4.45 µM and 6.28 µM,42.8 µM and 40.6 µM,1180 nM and 3880 nM,7.8 µM and 50 µM,2.82 µM and 8.54 µM,28 µM and 96.9 µM,3.21 µM and 6.71 µM,48.2 µM and 49.6 µM,678 nM and 2840 nM,8.68 µM and 8.38 µM,625 nM and 2170 nM,> 100 µM,7.61 µM and 19.2 µM,> 100 µM,3.26 µM and 18.5 µM,19.5 µM and > 100 µM,3.86 µM and 16.1 µM,32.3 µM and 77.1 µM,11.6 µM and 27.2 µM,> 100 µM
NC(=O)c1c[nH]c2ncnc(N)c12,21.6 µM,> 100 µM,2690 nM,33.8 µM,39 µM,> 100 µM,73 µM,> 100 µM,32300 nM,> 100 µM,93900 nM,> 100 µM,47.9 µM,> 100 µM,21.3 µM,71.1 µM,26.6 µM,> 100 µM,58.8 µM,> 100 µM
CC(C)[C@@]12C[C@@H](OC(=O)COC(=O)c3ccccc3)[C@@](C)(O1)[C@@H]1CC[C@@H](C)[C@H]1[C@@H]2OC(=O)/C=C/c1ccccc1,0.304 µM,> 100 µM,81.2 nM,2.87 µM,> 100 µM,> 100 µM,> 100 µM,> 100 µM,> 75100 nM,> 100 µM,62700 nM,> 100 µM,> 100 µM,> 100 µM,> 100 µM,> 100 µM,> 100 µM,> 100 µM,> 100 µM,> 100 µM
CC[C@]12C=CCN3CC[C@@]4(c5ccc(OC)cc5N(C)[C@H]4[C@@](O)(C(=O)OC)[C@@H]1OC(=O)CCC(=O)O[C@H]1CC[C@H]4[C@@H]5CCC6=CC(=O)CC[C@@H]6[C@H]5CC[C@]14C)[C@@H]32,1.62 µM,9.38 µM,1560 nM,> 50 µM,1.7 µM,> 50 µM,1.98 µM,> 50 µM,1070 nM,2.57 µM,1820 nM,> 50 µM,1.92 µM,> 50 µM,1.64 µM,21.1 µM,1.93 µM,> 50 µM,2.17 µM,> 50 µM
Cn1cc(-c2csc(-c3ccccc3)n2)c2cccnc21,17.1 µM,45.8 µM,7100 nM,31.7 µM,5.2 µM,35.2 µM,16.7 µM,31.1 µM,9400 nM,34 µM,13900 nM,48.9 µM,13.9 µM,27.8 µM,16.4 µM,42.6 µM,11.2 µM,26.5 µM,15.7 µM,31.5 µM
CC(C)n1cc(-c2ccc3c(c2)N(C)CC3)c2c(NS(=O)(=O)c3ccn(C)n3)ccnc21,25.3 µM,> 100 µM,44300 nM,> 100 µM,28.2 µM,> 100 µM,> 100 µM,> 100 µM,59200 nM,> 100 µM,79900 nM,> 100 µM,44.5 µM,> 100 µM,> 100 µM,> 100 µM,83 µM,> 100 µM,34.5 µM,> 100 µM
Cc1c(O)cccc1C(=O)N[C@@H](CSc1ccccc1)[C@H](O)CN1C[C@H]2CCCC[C@H]2C[C@H]1C(=O)NC(C)(C)C,4.97 µM and 3.88 µM,21.1 µM and 17.1 µM,2570 nM and 9320 nM,6.56 µM and > 37.8 µM,4.86 µM and 6.92 µM,38 µM and > 43.4 µM,3.6 µM and 4.97 µM,10.5 µM and 13.6 µM,2950 nM and 3430 nM,> 26 µM and 13.6 µM,3350 nM and 10300 nM,> 100 µM and 31.3 µM,4.45 µM and 5.2 µM,16.4 µM and 15.4 µM,2.13 µM and 7.03 µM,8.41 µM and 18.6 µM,3.46 µM and 4.9 µM,12.8 µM and 38.4 µM,5.68 µM and 7.33 µM,19.3 µM and 22.2 µM
COc1cccc2nc(Nc3cccc(NC(=O)c4ccc(N5CCN(C)CC5)c(C(F)(F)F)c4)c3)ccc12,2.79 µM,9.39 µM,1120 nM,3.46 µM,1.83 µM,6.92 µM,0.95 µM,1.78 µM,1070 nM,2.35 µM,1100 nM,3.68 µM,0.899 µM,1.95 µM,0.816 µM,1.62 µM,0.878 µM,1.73 µM,0.896 µM,1.64 µM
CC(=O)OC1C(O)C(C)OC(OC2C(OC(=O)C3CCC4C(C3)OC3(CC(OC(=O)/C=C/c5ccccc5)C(C)CO3)C43CO3)OC(C)C(O)C2OC(C)=O)C1O (configuration not stated),–,0.0147 µM,–,1.21 µM,–,0.074 µM,–,0.0148 µM,–,0.0192 µM,–,0.241 µM,–,0.0293 µM,–,< 0.0185 µM,–,0.00649 µM,–,0.0305 µM
